“And” between values parts separate entries of the source, which are not always exact repeats. Equal values may be shown once. Toxic doses and inconclusive results are not listed. Rule as the data show it: active = T/C of 150% or more; inactive = T/C below 125%.
Test system: L1210 leukemia ip in BDF1 mice, survival T/C
Test: NCI In Vivo Anticancer Drug Screen. Data for tumor model L1210 Leukemia (intraperitoneal) in B6D2F1 (BDF1) mice
Conditions: endpoint: mean survival time, higher = longer survival
How it was run: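 Each compound was tested against a transplantable tumor grown in mice. The endpoint was survival, with treated animals benchmarked against vehicle controls as a simple ratio.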

[1] = dose: 100.0 mg/kg/injection, schedule: Q04DX003 (ip), vehicle: saline with Tween-80
[2] = dose: 100.0 mg/kg/injection, schedule: Q01DX001 (ip), vehicle: saline
[3] = dose: 200.0 mg/kg/injection, schedule: Q01DX001 (ip), vehicle: saline
[4] = dose: 400.0 mg/kg/injection, schedule: Q01DX001 (ip), vehicle: saline
[5] = dose: 100.0 mg/kg/injection, schedule: Q01DX001 (ip), vehicle: carboxymethylcellulose (CMC)
[6] = dose: 200.0 mg/kg/injection, schedule: Q01DX001 (ip), vehicle: carboxymethylcellulose (CMC)
[7] = dose: 400.0 mg/kg/injection, schedule: Q01DX001 (ip), vehicle: carboxymethylcellulose (CMC)
[8] = dose: 100.0 mg/kg/injection, schedule: Q04DX003 (ip), vehicle: saline
[9] = dose: 200.0 mg/kg/injection, schedule: Q04DX003 (ip), vehicle: saline
[10] = dose: 400.0 mg/kg/injection, schedule: Q04DX003 (ip), vehicle: saline

Measured: T/C

CC(=O)Nc1ccc(SC(=O)N(C)C)cc1
inactive: dose: 12.5 mg/kg/injection, schedule: Q01DX009 (ip), vehicle: saline + alcohol 90 % of control | dose: 25.0 mg/kg/injection, schedule: Q01DX009 (ip), vehicle: saline + alcohol 95 % of control | dose: 25.0 mg/kg/injection, schedule: Q04DX003 (ip), vehicle: saline with Tween-80 98 % of control | dose: 50.0 mg/kg/injection, schedule: Q01DX009 (ip), vehicle: saline + alcohol 101 % of control | dose: 50.0 mg/kg/injection, schedule: Q04DX003 (ip), vehicle: saline with Tween-80 104 % of control | [1] 103 % of control

CC(NC(=O)C(CO)NC(=O)c1cnc2ccccc2n1)C(=O)OC(C)(C)C (stereo unspecified)
inactive: [2] 102 % of control | [3] 102 % of control | [4] 115 % of control

C#CC1(OCC(O)CO)CCCCC1 (stereo unspecified)
inactive: dose: 25.0 mg/kg/injection, schedule: Q01DX009 (ip), vehicle: water 115 % of control | dose: 50.0 mg/kg/injection, schedule: Q01DX009 (ip), vehicle: water 110 % of control | dose: 100.0 mg/kg/injection, schedule: Q01DX009 (ip), vehicle: water 100 % of control | dose: 200.0 mg/kg/injection, schedule: Q01DX009 (ip), vehicle: water 97 % of control

COc1cc(C(=O)NCC2(C)OC3(OC(=O)C2O)C(=O)N/C(=C(\C=O)C(C)=O)OC3C(O)C2CN2C(C)=O)c2cccc(C)c2c1 (stereo unspecified)
inactive: dose: 0.05 mg/kg/injection, schedule: Q01DX015 (oral), vehicle: clinical formulation 107 % of control | dose: 0.1 mg/kg/injection, schedule: Q01DX001 (ip), vehicle: clinical formulation 104 % of control and 120 % of control | dose: 0.1 mg/kg/injection, schedule: Q01DX015 (oral), vehicle: clinical formulation 113 % of control | dose: 0.15 mg/kg/injection, schedule: Q03DX005 (ip), vehicle: clinical formulation 111 % of control | dose: 0.2 mg/kg/injection, schedule: Q01DX001 (ip), vehicle: clinical formulation 103 % of control | dose: 0.2 mg/kg/injection, schedule: Q07DX003 (ip), vehicle: clinical formulation 105 % of control | dose: 0.4 mg/kg/injection, schedule: Q01DX001 (ip), vehicle: clinical formulation 95 % of control and 115 % of control | dose: 0.8 mg/kg/injection, schedule: Q01DX001 (ip), vehicle: clinical formulation 107 % of control | dose: 3.5 micrograms/kg/injection, schedule: Q03DX005 (ip), vehicle: clinical formulation 114 % of control | dose: 6.0 micrograms/kg/injection, schedule: Q01DX015 (ip), vehicle: clinical formulation 112 % of control | dose: 6.0 micrograms/kg/injection, schedule: Q01DX045 (ip), vehicle: clinical formulation 124 % of control | dose: 7.0 micrograms/kg/injection, schedule: Q03DX005 (ip), vehicle: clinical formulation 122 % of control | dose: 12.5 micrograms/kg/injection, schedule: Q01DX006 (iv), vehicle: clinical formulation 109 % of control | dose: 12.5 micrograms/kg/injection, schedule: Q01DX015 (im), vehicle: clinical formulation 103 % of control | dose: 12.5 micrograms/kg/injection, schedule: Q01DX045 (ip), vehicle: clinical formulation 118 % of control | dose: 13.0 micrograms/kg/injection, schedule: Q01DX Z (ip), vehicle: saline 113 % of control | dose: 13.0 micrograms/kg/injection, schedule: Q07DX003 (ip), vehicle: clinical formulation 118 % of control | dose: 25.0 micrograms/kg/injection, schedule: Q01DX006 (iv), vehicle: clinical formulation 101 % of control | dose: 25.0 micrograms/kg/injection, schedule: Q01DX015 (im), vehicle: clinical formulation 109 % of control | dose: 25.0 micrograms/kg/injection, schedule: Q01DX Z (ip), vehicle: saline 113 % of control | dose: 25.0 micrograms/kg/injection, schedule: Q07DX003 (ip), vehicle: clinical formulation 124 % of control | dose: 50.0 micrograms/kg/injection, schedule: Q01DX006 (iv), vehicle: clinical formulation 115 % of control | dose: 50.0 micrograms/kg/injection, schedule: Q01DX015 (im), vehicle: clinical formulation 115 % of control | dose: 50.0 micrograms/kg/injection, schedule: Q01DX Z (ip), vehicle: saline 98 % of control and 107 % of control | dose: 100.0 micrograms/kg/injection, schedule: Q01DX006 (iv), vehicle: clinical formulation 123 % of control | dose: 100.0 micrograms/kg/injection, schedule: Q01DX015 (im), vehicle: clinical formulation 110 % of control | dose: 100.0 micrograms/kg/injection, schedule: Q01DX015 (ip), vehicle: clinical formulation 95 % of control | dose: 100.0 micrograms/kg/injection, schedule: Q01DX Z (ip), vehicle: saline 89 % of control

C[Si](C)(C)Cc1cccc(F)c1
inactive: dose: 25.6 mg/kg/injection, schedule: Q04DX002 (ip), vehicle: saline with Tween-80 93 % of control | dose: 64.0 mg/kg/injection, schedule: Q04DX002 (ip), vehicle: saline with Tween-80 90 % of control | dose: 160.0 mg/kg/injection, schedule: Q04DX002 (ip), vehicle: saline with Tween-80 87 % of control | dose: 400.0 mg/kg/injection, schedule: Q04DX002 (ip), vehicle: saline with Tween-80 97 % of control

CCC/C(=N\NC(=O)c1ccccc1O)c1ccccc1
inactive: [5] 105 % of control | dose: 100.0 mg/kg/injection, schedule: Q01DX009 (ip), vehicle: carboxymethylcellulose (CMC) 102 % of control and 89 % of control | dose: 100.0 mg/kg/injection, schedule: Q04DX002 (ip), vehicle: carboxymethylcellulose (CMC) 95 % of control and 107 % of control | dose: 100.0 mg/kg/injection, schedule: Q04DX003 (ip), vehicle: carboxymethylcellulose (CMC) 93 % of control | [6] 100 % of control | dose: 200.0 mg/kg/injection, schedule: Q01DX009 (ip), vehicle: carboxymethylcellulose (CMC) 94 % of control and 89 % of control | dose: 200.0 mg/kg/injection, schedule: Q04DX002 (ip), vehicle: carboxymethylcellulose (CMC) 98 % of control and 102 % of control | dose: 200.0 mg/kg/injection, schedule: Q04DX003 (ip), vehicle: carboxymethylcellulose (CMC) 89 % of control | [7] 100 % of control | dose: 400.0 mg/kg/injection, schedule: Q01DX009 (ip), vehicle: carboxymethylcellulose (CMC) 94 % of control and 98 % of control | dose: 400.0 mg/kg/injection, schedule: Q04DX002 (ip), vehicle: carboxymethylcellulose (CMC) 98 % of control and 103 % of control | dose: 400.0 mg/kg/injection, schedule: Q04DX003 (ip), vehicle: carboxymethylcellulose (CMC) 98 % of control

CCOC(C)C1C2CCCC(C)C21 (stereo unspecified)
inactive: [8] 102 % of control | [9] 96 % of control | [10] 93 % of control

ICc1nc2ccccc2[nH]1
inactive: dose: 9.38 mg/kg/injection, schedule: Q01DX001 (ip), vehicle: steriod suspending solution 95 % of control | dose: 18.75 mg/kg/injection, schedule: Q01DX001 (ip), vehicle: steriod suspending solution 105 % of control | dose: 37.5 mg/kg/injection, schedule: Q01DX001 (ip), vehicle: steriod suspending solution 94 % of control

Cc1cc(C)c(C(=O)CBr)c(C)c1
inactive: [5] 112 % of control | [2] 101 % of control | [6] 106 % of control | [3] 101 % of control | [7] 101 % of control | [4] 110 % of control

O=c1cc(COc2ccc(O)cc2)[nH]c(=O)[nH]1
inactive: [8] 101 % of control | [9] 104 % of control | [10] 89 % of control

CN(C)c1ccc(/C=C2\C=Cc3ccccc32)cc1Br
inactive: [1] 101 % of control

CC1CSC(=S)S1 (stereo unspecified)
inactive: dose: 50.0 mg/kg/injection, schedule: Q04DX003 (ip), vehicle: Klucel (hydroxypropylcellulose) (HPC) 102 % of control | dose: 100.0 mg/kg/injection, schedule: Q04DX003 (ip), vehicle: Klucel (hydroxypropylcellulose) (HPC) 107 % of control | dose: 200.0 mg/kg/injection, schedule: Q04DX003 (ip), vehicle: Klucel (hydroxypropylcellulose) (HPC) 104 % of control

— PubChem BioAssay AID248 (DTP/NCI, 2004)
